Reference: patent US11274090B2, “P300/CBP HAT inhibitors” (Constellation Pharmaceuticals, Inc., priority 2018, dated 2022)

tested on: acetylation of chromatin at H3K18 (p300 and CBP) in HCT-116 cells; assay: H3K18Ac MSD cellular assay; format: cell-based; details: 2 hr treatment
Protocol: Select compounds were also evaluated in a H3K18Ac MSD cellular assay that measures the ability of compounds to inhibit the acetylation of chromatin at H3K18, a process catalyzed by p300 and CBP. In a typical experiment the p300 HAT inhibitory activity inside cells of the compounds described herein was determined in accordance with the following experimental method. 20 k HCT-116 cells per well are plated in 75 μL RPMI+10% FBS media the night before treatment. Compounds plated in DMSO at 4× final concentration are resuspended in 30 μL RPMI+10% FBS, then 25 μL is combined with corresponding wells containing cells. Treated cells are incubated for 2 hr at 37° C., then lysed in 500 μL final volume and frozen at −80° C. MSD plates (Meso Scale Discovery) are coated overnight at 4° C. with 60 μL 1:500 α-total histone antibody (Millipore MAB3422) in PBS. Plates are then blocked with 5% BSA in TBST shaking at RT for 1 hr, washed, and 30 μL lysate added to each well for 2 hr shaking at RT. Plates are washed and 25 μL 1:216 α-H3K18ac antibody (CST 9675) in PBS added, then incubated for 1 hr shaking at RT. Plates are washed again, then 25 μL 1:1000 Sulfo-Tag goat α-rabbit antibody (Meso Scale Discovery R32Ab-1) in PBS is added for 1 hr shaking at RT. Plates are washed once more, then 150 μL 1× Read Buffer (MSD #R92TD-3) is added to all wells and read on MSD SECTOR Imager 2400 using the conventional read setup.

| Molecule | EC50 |
| --- | --- |
| Cn1cc(-c2ccc(NC(=O)C(NCCc3ccc(C#N)cc3)c3ccccc3)nc2)cn1 (single isomer, unassigned) [22 Isomer 2] | 66.8 nM |
| Cn1cc(-c2ccc(NC(=O)C(NCCc3ccc(C#N)cc3)c3ccccc3)nc2)cn1 (single isomer, unassigned) [22 Isomer 1] | 24.6 nM |

same assay, conditions: Homo sapiens, 2 hr treatment

| Molecule | EC50 |
| --- | --- |
| N#Cc1ccc(CCNC(C(=O)Nc2ccc(C3CC3)cn2)c2ccccc2)cc1 (single isomer, unassigned) [42 Isomer 1] | 333 nM |
| C[C@H](CNC(C(=O)Nc1ccc(-c2cnn(CC(=O)N3CCCC3)c2)cn1)c1ccccc1)c1ccc(C#N)cc1 (single isomer, unassigned) [132 Isomer 2] | 29.1 nM |
| CC(CNC(C(=O)Nc1ccc(-c2cnn(C)c2)cc1)c1ccccc1)c1ccc(Cl)cc1 (single isomer, unassigned) [2 Isomer 2] | 324 nM |
| CC(CNC(C(=O)Nc1ccc(-c2cnn(C)c2)cn1)c1ccccc1)c1ccc(C#N)cc1F (single isomer, unassigned) [90 Isomer 2] | 15.1 nM |
| N#Cc1ccc(CCNC(C(=O)Nc2ccc(N3CCCC3)cn2)c2ccccc2)cc1 (single isomer, unassigned) [37 Isomer 1] | 118 nM |
| Cn1cc(-c2ccc(NC(=O)C(NCCc3ccc(Cl)cc3)c3ccccc3)nc2)cn1 (single isomer, unassigned) [55 Isomer 1] | 31.5 nM |
| Cn1cc(-c2ccc(NC(=O)C(NCCc3ccc(C#N)cc3Cl)c3ccccc3)nc2)cn1 (single isomer, unassigned) [51 Isomer 1] | 22.9 nM |
| CN1CCN(c2ccc(NC(=O)C(NCCc3ccc(C#N)cc3)c3ccccc3)nc2)CC1 (single isomer, unassigned) [49 Isomer 1] | 48.4 nM |
| Cc1cn(-c2ccc(NC(=O)[C@@H](NCCc3ccc(Cl)cc3)c3ccccc3)cc2)cn1 (single isomer, unassigned) [16 Isomer 1] | 1130 nM |
| CC(CNC(C(=O)Nc1ccc(-c2cnn(C)c2)cc1)c1ccccc1)c1ccc(C#N)cc1 (single isomer, unassigned) [82 Isomer 4] | 23.6 nM |
| Cn1cc(-c2ccc(NC(=O)C(NCCc3ccc(C#N)cc3)c3ccccc3)cc2Cl)cn1 (single isomer, unassigned) [27 Isomer 1] | 2020 nM |
| Cn1cc(-c2ccc(NC(=O)C(NCCc3ccc(F)cc3)c3ccccc3)nc2)cn1 (single isomer, unassigned) [58 Isomer 1] | 82 nM |
| N#Cc1ccc(CCNC(C(=O)Nc2ccc(-c3cccnn3)cc2)c2ccccc2)cc1 (single isomer, unassigned) [12 Isomer 2] | 1800 nM |

same assay, conditions: Homo sapiens, HCT-116, 2 h, 2 hr treatment

| Molecule | EC50 |
| --- | --- |
| Cn1cc(-c2cnc(NC(=O)C(NCCc3ccc(C#N)cc3)c3ccccc3)cn2)cn1 (single isomer, unassigned) [56 Isomer 1] | 444 nM |

biological target: full length p300 (Homo sapiens (Human), UniProt Q09472); assay: full length p300 SPA assay; format: biochemical; details: average of at least 2 replicate titrations, read-out: FL P300 IC50
Sequence (Q09472 whole entry): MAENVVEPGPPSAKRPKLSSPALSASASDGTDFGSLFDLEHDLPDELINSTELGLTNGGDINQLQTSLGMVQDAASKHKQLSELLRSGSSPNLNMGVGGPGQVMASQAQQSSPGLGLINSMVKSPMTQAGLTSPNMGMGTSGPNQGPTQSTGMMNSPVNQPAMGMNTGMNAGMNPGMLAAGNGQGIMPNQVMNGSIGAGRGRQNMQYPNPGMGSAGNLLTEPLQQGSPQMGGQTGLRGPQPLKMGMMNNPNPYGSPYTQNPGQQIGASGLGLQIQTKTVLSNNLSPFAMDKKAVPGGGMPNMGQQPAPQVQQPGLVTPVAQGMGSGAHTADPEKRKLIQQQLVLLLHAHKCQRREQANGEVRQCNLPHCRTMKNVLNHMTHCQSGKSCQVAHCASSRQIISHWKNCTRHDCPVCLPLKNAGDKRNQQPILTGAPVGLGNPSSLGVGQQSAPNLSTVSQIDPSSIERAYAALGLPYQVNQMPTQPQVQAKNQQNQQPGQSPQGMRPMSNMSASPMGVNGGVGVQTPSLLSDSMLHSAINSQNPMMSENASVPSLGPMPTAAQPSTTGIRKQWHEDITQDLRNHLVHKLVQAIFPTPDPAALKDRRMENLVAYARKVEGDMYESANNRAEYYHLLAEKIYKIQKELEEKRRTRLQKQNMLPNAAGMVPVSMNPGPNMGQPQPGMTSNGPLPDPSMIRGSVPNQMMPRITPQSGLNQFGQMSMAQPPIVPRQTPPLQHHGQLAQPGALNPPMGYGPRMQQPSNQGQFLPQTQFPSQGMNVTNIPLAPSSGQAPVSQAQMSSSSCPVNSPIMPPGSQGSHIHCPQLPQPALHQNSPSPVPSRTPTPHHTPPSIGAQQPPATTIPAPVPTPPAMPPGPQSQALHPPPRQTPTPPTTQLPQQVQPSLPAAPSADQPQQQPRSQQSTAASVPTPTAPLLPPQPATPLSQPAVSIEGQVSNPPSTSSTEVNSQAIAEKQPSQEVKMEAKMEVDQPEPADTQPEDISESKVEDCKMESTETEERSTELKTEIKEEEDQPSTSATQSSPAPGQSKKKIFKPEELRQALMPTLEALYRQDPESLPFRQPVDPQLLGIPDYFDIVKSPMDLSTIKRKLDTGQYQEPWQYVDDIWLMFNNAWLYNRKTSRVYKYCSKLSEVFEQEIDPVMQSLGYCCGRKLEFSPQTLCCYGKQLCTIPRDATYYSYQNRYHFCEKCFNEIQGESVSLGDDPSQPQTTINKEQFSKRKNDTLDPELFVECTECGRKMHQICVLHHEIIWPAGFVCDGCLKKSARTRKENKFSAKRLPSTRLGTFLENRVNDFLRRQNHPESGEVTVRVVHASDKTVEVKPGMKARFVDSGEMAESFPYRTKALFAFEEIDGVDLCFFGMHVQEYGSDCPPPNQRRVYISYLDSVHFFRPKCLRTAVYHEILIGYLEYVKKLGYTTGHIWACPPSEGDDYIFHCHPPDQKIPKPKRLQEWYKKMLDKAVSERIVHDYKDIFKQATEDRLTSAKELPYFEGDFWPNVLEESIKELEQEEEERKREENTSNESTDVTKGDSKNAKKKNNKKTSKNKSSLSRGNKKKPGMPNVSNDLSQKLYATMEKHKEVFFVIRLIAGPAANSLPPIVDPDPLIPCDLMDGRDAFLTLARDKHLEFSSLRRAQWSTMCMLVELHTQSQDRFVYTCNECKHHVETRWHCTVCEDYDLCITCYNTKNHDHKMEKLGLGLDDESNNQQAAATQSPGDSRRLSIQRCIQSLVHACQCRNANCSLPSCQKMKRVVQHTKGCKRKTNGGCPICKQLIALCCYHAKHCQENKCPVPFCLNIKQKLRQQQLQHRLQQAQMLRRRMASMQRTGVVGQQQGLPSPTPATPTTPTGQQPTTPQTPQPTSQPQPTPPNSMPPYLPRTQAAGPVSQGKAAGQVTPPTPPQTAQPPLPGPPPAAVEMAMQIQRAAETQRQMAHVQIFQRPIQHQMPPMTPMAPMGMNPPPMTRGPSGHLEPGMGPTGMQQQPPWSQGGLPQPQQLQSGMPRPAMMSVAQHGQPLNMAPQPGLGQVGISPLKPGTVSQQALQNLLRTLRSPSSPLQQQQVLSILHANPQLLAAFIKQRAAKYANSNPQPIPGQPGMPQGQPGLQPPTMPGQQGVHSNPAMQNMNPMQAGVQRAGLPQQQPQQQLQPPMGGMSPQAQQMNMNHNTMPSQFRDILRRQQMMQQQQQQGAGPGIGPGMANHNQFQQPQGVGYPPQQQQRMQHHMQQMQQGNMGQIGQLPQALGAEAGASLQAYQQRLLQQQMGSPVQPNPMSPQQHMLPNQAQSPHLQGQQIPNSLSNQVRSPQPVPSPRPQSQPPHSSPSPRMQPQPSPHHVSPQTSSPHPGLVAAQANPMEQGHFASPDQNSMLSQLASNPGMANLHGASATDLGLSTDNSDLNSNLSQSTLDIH
Protocol: Reactions were initiated with 12.5 μL 2 μM biotinylated H3(1-21) peptide (New England Peptide) and run for 1 hr at RT, then quenched with 20 μL stop solution (200 mM Tris pH 8.0, 200 mM EDTA, 2M NaCl, 160 μM anacardic acid). 35 μL of the reaction volume was transferred to a 384-well streptavidin FlashPlate (PerkinElmer) using a Bravo liquid handler (Velocity 11) and incubated for 1.5 hr at RT. Plates were aspirated, washed with 95 μL wash buffer (15 mM Tris pH 8.5, 0.069 μM Brij-35), aspirated, sealed, and scintillation counts read on a Topcount (PerkinElmer). Data were analyzed in Genedata to determine inhibitor IC50 values.
The full length p300 SPA assay was run following the same protocol as p300 HAT SPA assay, but used 6 nM purified full length p300 (purchased from Active Motif) in place of the purified p300-HAT domain.

| Molecule | IC50 |
| --- | --- |
| Cn1cc(-c2ccc3c(c2)CCN3C(=O)C(NCCc2ccc(C#N)cc2)c2ccccc2)cn1 (single isomer, unassigned) [152 Isomer 1] | 40.6 nM |
| Cc1c(-c2ccc(NC(=O)C(NC[C@@H](C)c3ccc(C#N)cc3)c3ccccc3)nc2)cnn1C (single isomer, unassigned) [114 Isomer 2] | 0.73 nM |
| N#Cc1ccc(CCNC(C(=O)Nc2ccc(-c3ccccc3)cn2)c2ccccc2)cc1 (single isomer, unassigned) [34 Isomer 1] | 7250 nM |
| Cc1ccc(-c2ccc(NC(=O)C(NCC(C)c3ccc(C#N)cc3)c3ccccc3)nc2)nn1 (single isomer, unassigned) [15 Isomer 4] | 1.5 nM |
| COC1CN(c2ccc(NC(=O)C(NCCc3ccc(C#N)cc3)c3ccccc3)nc2)C1 (single isomer, unassigned) [31 Isomer 1] | 2.57 nM |
| COC1(C)CCN(c2ccc(NC(=O)C(NCCc3ccc(C#N)cc3)c3ccccc3)nc2)CC1 (single isomer, unassigned) [53 Isomer 1] | 5.16 nM |
| (R, S)- and (S, S)-2-((2- (4- cyanophenyl)propyl)ami- no)-N-(5-(1,3-dimethyl- 1H-pyrazol-4-yl)pyridin- 2-yl)-2-phenylacetamide [113 Isomer 2] | 0.74 nM |
| Cc1ccn(-c2ccc(NC(=O)C(NCC(C)c3ccc(C#N)cc3)c3ccccc3)nc2)n1 (single isomer, unassigned) [61 Isomer 3] | < 2 nM |
| Cn1cc(-c2cnc(NC(=O)C(NCCc3ccc(C#N)cc3)c3ccccc3)cc2F)cn1 (single isomer, unassigned) [74 Isomer 1] | 214 nM |
| Cc1nn(C)c(C)c1-c1ccc(NC(=O)C(NC[C@@H](C)c2ccc(C#N)cc2)c2ccccc2)nc1 (single isomer, unassigned) [130 Isomer 2] | < 3.24 nM |
| COC1CN(c2ccc(NC(=O)C(NCCc3ccc(C#N)cc3)c3ccccc3)nc2)C1 (single isomer, unassigned) [31 Isomer 2] | 167 nM |
| CN1CCN(c2ccc(NC(=O)C(NCCc3ccc(Cl)cc3)c3ccccc3)nc2)CC1=O (single isomer, unassigned) [45 Isomer 2] | 43.1 nM |
| CC1CN(c2ccc(NC(=O)C(NC[C@@H](C)c3ccc(C#N)cc3)c3ccccc3)nc2)CC(=O)N1C (single isomer, unassigned) [124 Isomer 1] | 1.78 nM |
| C[C@H](CNC(C(=O)Nc1ccc(-c2cnn(C)c(=O)c2)cn1)c1ccccc1)c1ccc(C#N)cc1 (single isomer, unassigned) [139 Isomer 1] | < 3.24 nM |
| Cn1ccc(-c2ccc(NC(=O)C(NCCc3ccc(C#N)cc3)c3ccccc3)nc2)n1 (single isomer, unassigned) [14 Isomer 1] | 176 nM |
| CC(=O)N1CCN(c2ccc(NC(=O)C(NCCc3ccc(C#N)cc3)c3ccccc3)nc2)CC1 (single isomer, unassigned) [72 Isomer 2] | 46.9 nM |
| C[C@H](CNC(C(=O)Nc1ccc(C2CC(=O)N(C)C2)cn1)c1ccccc1)c1ccc(C#N)cc1 (single isomer, unassigned) [109 Isomer 4] | 3.3 nM |

biological target: p300 HAT domain (residues 1287-1666) (Homo sapiens (Human), UniProt Q09472); assay: p300 HAT SPA assay (scintillation proximity assay, acetylation of biotinylated H3(1-21) peptide); format: biochemical; details: average of at least 2 replicate titrations
Sequence (Q09472 1287-1666): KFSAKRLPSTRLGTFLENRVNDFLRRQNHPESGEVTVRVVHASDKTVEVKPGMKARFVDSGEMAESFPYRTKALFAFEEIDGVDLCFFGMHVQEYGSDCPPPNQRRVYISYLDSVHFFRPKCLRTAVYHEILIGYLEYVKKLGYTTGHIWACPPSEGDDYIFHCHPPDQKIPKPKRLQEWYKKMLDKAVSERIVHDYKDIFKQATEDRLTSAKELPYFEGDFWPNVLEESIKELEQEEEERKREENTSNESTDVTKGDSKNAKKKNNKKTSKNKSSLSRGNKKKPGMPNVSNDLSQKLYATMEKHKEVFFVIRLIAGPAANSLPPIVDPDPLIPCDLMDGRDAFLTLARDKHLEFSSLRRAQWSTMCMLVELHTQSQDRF
In short: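 Scintillation proximity readout of acetylated biotin-H3(1-21) captured on streptavidin plates after 1.5 hr at RT; enzyme was Ni2+/anion-exchange-purified HAT domain in 20 mM Hepes pH 7.5. Inhibitor IC50s calculated from the data.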

| Molecule | IC50 |
| --- | --- |
| N#Cc1ccc(CCNC(C(=O)Nc2ccc(C3CC3)cn2)c2ccccc2)cc1 (single isomer, unassigned) [42 Isomer 1] | 53.6 nM |
| C[C@H](CNC(C(=O)Nc1ccc(-c2cnn(CC(=O)N3CCCC3)c2)cn1)c1ccccc1)c1ccc(C#N)cc1 (single isomer, unassigned) [132 Isomer 2] | 13.3 nM |
| CC(CNC(C(=O)Nc1ccc(-c2cnn(C)c2)cc1)c1ccccc1)c1ccc(Cl)cc1 (single isomer, unassigned) [2 Isomer 2] | 119 nM |
| Cn1cc(-c2cnc(NC(=O)C(NCCc3ccc(C#N)cc3)c3ccccc3)cn2)cn1 (single isomer, unassigned) [56 Isomer 1] | 416 nM |
| CC(CNC(C(=O)Nc1ccc(-c2cnn(C)c2)cn1)c1ccccc1)c1ccc(C#N)cc1F (single isomer, unassigned) [90 Isomer 2] | 9.6 nM |
| N#Cc1ccc(CCNC(C(=O)Nc2ccc(N3CCCC3)cn2)c2ccccc2)cc1 (single isomer, unassigned) [37 Isomer 1] | 65.4 nM |
| Cn1cc(-c2ccc(NC(=O)C(NCCc3ccc(Cl)cc3)c3ccccc3)nc2)cn1 (single isomer, unassigned) [55 Isomer 1] | 19 nM |
| Cn1cc(-c2ccc(NC(=O)C(NCCc3ccc(C#N)cc3Cl)c3ccccc3)nc2)cn1 (single isomer, unassigned) [51 Isomer 1] | 15 nM |
| CN1CCN(c2ccc(NC(=O)C(NCCc3ccc(C#N)cc3)c3ccccc3)nc2)CC1 (single isomer, unassigned) [49 Isomer 1] | 79.3 nM |
| Cc1cn(-c2ccc(NC(=O)[C@@H](NCCc3ccc(Cl)cc3)c3ccccc3)cc2)cn1 (single isomer, unassigned) [16 Isomer 1] | 614 nM |
| CC(CNC(C(=O)Nc1ccc(-c2cnn(C)c2)cc1)c1ccccc1)c1ccc(C#N)cc1 (single isomer, unassigned) [82 Isomer 4] | 11.6 nM |
| Cn1cc(-c2ccc(NC(=O)C(NCCc3ccc(C#N)cc3)c3ccccc3)cc2Cl)cn1 (single isomer, unassigned) [27 Isomer 1] | 576 nM |
| Cn1cc(-c2ccc(NC(=O)C(NCCc3ccc(F)cc3)c3ccccc3)nc2)cn1 (single isomer, unassigned) [58 Isomer 1] | 40.7 nM |
| Cn1cc(-c2ccc3c(c2)CCN3C(=O)C(NCCc2ccc(C#N)cc2)c2ccccc2)cn1 (single isomer, unassigned) [152 Isomer 1] | 966 nM |
| Cc1c(-c2ccc(NC(=O)C(NC[C@@H](C)c3ccc(C#N)cc3)c3ccccc3)nc2)cnn1C (single isomer, unassigned) [114 Isomer 2] | 10.5 nM |
| N#Cc1ccc(CCNC(C(=O)Nc2ccc(-c3ccccc3)cn2)c2ccccc2)cc1 (single isomer, unassigned) [34 Isomer 1] | > 5000 nM |

| Molecule | IC50 |
| --- | --- |
| N#Cc1ccc(CCNC(C(=O)Nc2ccc(-c3cccnn3)cc2)c2ccccc2)cc1 (single isomer, unassigned) [12 Isomer 2] | 479 nM |
| Cc1ccc(-c2ccc(NC(=O)C(NCC(C)c3ccc(C#N)cc3)c3ccccc3)nc2)nn1 (single isomer, unassigned) [15 Isomer 4] | 41.3 nM |
| COC1CN(c2ccc(NC(=O)C(NCCc3ccc(C#N)cc3)c3ccccc3)nc2)C1 (single isomer, unassigned) [31 Isomer 1] | 71.4 nM |
| COC1(C)CCN(c2ccc(NC(=O)C(NCCc3ccc(C#N)cc3)c3ccccc3)nc2)CC1 (single isomer, unassigned) [53 Isomer 1] | 121 nM |
| (R, S)- and (S, S)-2-((2- (4- cyanophenyl)propyl)ami- no)-N-(5-(1,3-dimethyl- 1H-pyrazol-4-yl)pyridin- 2-yl)-2-phenylacetamide [113 Isomer 2] | 10.2 nM |
| Cc1ccn(-c2ccc(NC(=O)C(NCC(C)c3ccc(C#N)cc3)c3ccccc3)nc2)n1 (single isomer, unassigned) [61 Isomer 3] | 31.5 nM |
| Cn1cc(-c2cnc(NC(=O)C(NCCc3ccc(C#N)cc3)c3ccccc3)cc2F)cn1 (single isomer, unassigned) [74 Isomer 1] | > 2000 nM |
| Cc1nn(C)c(C)c1-c1ccc(NC(=O)C(NC[C@@H](C)c2ccc(C#N)cc2)c2ccccc2)nc1 (single isomer, unassigned) [130 Isomer 2] | 14 nM |
| COC1CN(c2ccc(NC(=O)C(NCCc3ccc(C#N)cc3)c3ccccc3)nc2)C1 (single isomer, unassigned) [31 Isomer 2] | > 5000 nM |
| CN1CCN(c2ccc(NC(=O)C(NCCc3ccc(Cl)cc3)c3ccccc3)nc2)CC1=O (single isomer, unassigned) [45 Isomer 2] | 1020 nM |
| CC1CN(c2ccc(NC(=O)C(NC[C@@H](C)c3ccc(C#N)cc3)c3ccccc3)nc2)CC(=O)N1C (single isomer, unassigned) [124 Isomer 1] | 11 nM |
| C[C@H](CNC(C(=O)Nc1ccc(-c2cnn(C)c(=O)c2)cn1)c1ccccc1)c1ccc(C#N)cc1 (single isomer, unassigned) [139 Isomer 1] | 26 nM |
| Cn1ccc(-c2ccc(NC(=O)C(NCCc3ccc(C#N)cc3)c3ccccc3)nc2)n1 (single isomer, unassigned) [14 Isomer 1] | > 5000 nM |
| CC(=O)N1CCN(c2ccc(NC(=O)C(NCCc3ccc(C#N)cc3)c3ccccc3)nc2)CC1 (single isomer, unassigned) [72 Isomer 2] | > 2000 nM |
| C[C@H](CNC(C(=O)Nc1ccc(C2CC(=O)N(C)C2)cn1)c1ccccc1)c1ccc(C#N)cc1 (single isomer, unassigned) [109 Isomer 4] | 26.1 nM |
